These results are taken from US20100132057A1, “GENETICALLY MODIFIED ANIMAL FOR USE IN EVALUATING HARMFULNESS OF TEST SUBSTANCE” (priority 2008, published 2010).

The subject of experiment [1] is reporter (luciferase) gene under AhR-binding enhancer of the TH gene and TH gene promoter in primary neuronal cells. Description: Luciferase luminescence in primary neuronal cells isolated from genetically modified mouse during exposure to TCDD. In kind it is cell-based. To be noted: 24 hours, FIG. 9; for increase in the degree of luminescence from the unexposed case: primary neuronal cells of mouse #176 embryos (E12). The text has this:
Another embodiment of the invention is directed to a method that includes isolating primary neuronal cells from the genetically modified mouse, exposing the primary neuronal cells to a test substance, and then measuring the expression of the reporter gene in the cells to evaluate the effect of the test substance on the central nervous system. When the reporter gene is a firefly luciferase gene, the method may include isolating primary neuronal cells from the genetically modified mouse, exposing the primary neuronal cells to a test substance, collecting the cells to extract proteins therefrom 2 to 72 hours after the exposure, adding luciferin, a substrate for the luciferase, to the liquid extract, and measuring luminescence derived from the enzyme activity of the luciferase with a luminometer.
The genetically modified mouse #176 (hetero, male) was mated with a wild-type mouse, and 12 days after the observation of the plug, the brain was removed from the embryo (E12: an embryonic age of 12 days) under a sterile environment. All the removed embryonic brains were collected, and 0.25% trypsin was added thereto and incubated at 37° C. for 15 minutes. The trypsin was removed. After washed tree times with the Hank's solution, the cells were suspended in a serum-containing DF 1:1 medium (Dulbecco-F12 equal-ratio mixture medium+10% fetal bovine serum). […]
[…] The resulting extracted protein solution was used in the measurement of luciferase luminescence. In the luciferase luminescence measurement, 100 μl of an assay solution (PicaGene Assay Kit, Toyo B-Net Co., Ltd.) was added to 10 μl of the collected protein solution and stirred, and immediately after the stirring, the degree of luminescence per 2 minutes was measured with a luminometer LB-940 (Berthold). The resulting degree of luminescence was divided by the total protein amount of the protein solution so that it was converted into a relative luminescence intensity (RLU/min/μg protein). The total protein amount of the solution was measured with a protein assay kit (Bio-Rad).

Experiment [2] relates to reporter (luciferase) gene under AhR-binding enhancer of the TH gene and TH gene promoter. Description: Luciferase luminescence in genetically modified mouse during exposure to βNF (IVIS imaging). Format: in vivo. As for the experimental part: When the reporter gene is a firefly luciferase gene, the method may include administering luciferin, a substrate for the luciferase, by intraperitoneal injection to the genetically modified mouse 6 to 72 hours after the administration of the test substance to the genetically modified mouse and measuring luminescence derived from the individual or derived from the enzyme activity of the luciferase in the brain with a luminescence measurement system such as an In-Vivo Imaging System (IVIS), manufactured by Xenogen Corporation.
A dioxin analog, β-naphthoflavone (βNF), was used as a test substance. A solution of βNF in corn oil was intraperitoneally injected at a βNF dose of 40 mg/kg into each of the genetically modified mice #176 (4 weeks old), #177 (6 weeks old) and #184 (6 weeks old) in the T1 generation. The same amount of corn oil as the amount of the solution in the βNF-administered group was intraperitoneally administered to each of the control group mice (the genetically modified mice in the T1 generation). […] After 5 minutes, an In-Vivo Imaging System (IVIS 100-series), manufactured by Xenogen Corporation, was used to detect luciferase luminescence in the mice. […] In addition, the brain of the genetically modified mouse #176 was cut in the vicinity of the midbrain, and luminescence from the cut section was measured with the IVIS System.

For `Clc1cc2c(cc1Cl)Oc1cc(Cl)c(Cl)cc1O2` [TCDD, 2,3,7,8-tetrachlorodibenzo-p-dioxin], in experiment [1] (TCDD 0, 0.1 or 10 ng/ml, primary neuronal cells of mouse #176 embryos), the “change in the degree of luminescence with TCDD concentration” value is reported as “TCDD concentration-dependent increase in the degree of luminescence”. Moreover, the “increase in the degree of luminescence from the unexposed case” value amounted to 1.3 times in experiment [1] (exposure to 0.1 nM TCDD) and 3.1 times in experiment [1] (exposure to 10 ng/ml TCDD).

Turning to `O=c1cc(-c2ccccc2)oc2ccc3ccccc3c12` [βNF, β-naphthoflavone], in experiment [2] (genetically modified mice #176, #177, #184 (T1 generation), βNF 40 mg/kg intraperitoneal in corn oil, 72 hours after administration, whole-body IVIS, FIG. 6), the “luciferase luminescence in the mice” value was “luciferase luminescence was observed in all the genetically modified mice”. For the same compound, the “degree of luminescence from cut brain section” value in experiment [2] (genetically modified mouse #176, βNF 40 mg/kg intraperitoneal, brain cut in the vicinity of the midbrain, IVIS, FIG. 7) was “an increase in the degree of luminescence was detected in the vicinity of the midbrain or hippocampus”.
